Assays:
Type in all cases: cell-based
[1] = target: T1, GLUT1 (Homo sapiens, UniProt P11166); assay: GLUT1 transporter activity assay (2-DG uptake) in DLD1 cells; details: DLD1 cell line; read-out: GLUT1 inhibitory activity (IC50)
T1 construct: host or cells: DLD-1 (DLD1) cells
T1 sequence (P11166 1-492): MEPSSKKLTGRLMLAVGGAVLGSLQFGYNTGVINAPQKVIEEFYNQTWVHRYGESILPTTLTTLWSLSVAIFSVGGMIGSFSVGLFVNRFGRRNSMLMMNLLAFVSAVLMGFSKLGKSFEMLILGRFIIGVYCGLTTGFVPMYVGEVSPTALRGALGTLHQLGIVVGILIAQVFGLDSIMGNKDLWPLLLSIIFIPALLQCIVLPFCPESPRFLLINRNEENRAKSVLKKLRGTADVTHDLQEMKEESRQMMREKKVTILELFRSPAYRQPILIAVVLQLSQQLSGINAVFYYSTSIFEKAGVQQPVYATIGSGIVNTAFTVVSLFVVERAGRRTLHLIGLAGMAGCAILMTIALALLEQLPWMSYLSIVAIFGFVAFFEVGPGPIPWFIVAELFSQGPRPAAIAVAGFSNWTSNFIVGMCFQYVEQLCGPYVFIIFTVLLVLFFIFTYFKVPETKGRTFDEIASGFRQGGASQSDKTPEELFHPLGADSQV
From the text: (§1) GLUT 1, 2, 3 and 4 Transporter Activity Assays
(§2) Assays were based on the specificity assays reported by Kapoor et al., Proceedings of the National Academy of Sciences 2016, 113 (17) 4711-4716. For GLUT1, GLUT2, GLUT3 and GLUT4 specificity testing DLD1, CHO-hGLUT2, DLD-1-GLUT1−/− and CHO-hGLUT4 cell lines were used.
(§3) Assay protocols for 2-deoxy-Glucose (2-DG) Uptake Assay with DLD1 or DLD1-Glut1(−/−) cells or 7,000 CHOK1-SLC2A4 cells lines:
(§4) 14,000 DLD1 or DLD1-Glut1(−/−) cells or 7,000 CHOK1-SLC2A4 cells were seeded in black, clear bottom 384-well plates in glucose- and phenolred-free RPMI1640 medium supplemented with 1% FCS and 2 mM L-glutamine and allowed to attach overnight. Next day, cells were washed and incubated with compounds or DMSO and 1 mM 2-DG in glucose- and phenolred-free RPMI1640 medium for 30 min. Cells were then washed and lysed in 0.06 M HCl and 1% CHAPS for 15 min at 65° C. The amount of 2-DG in the lysate was determined by means of enzyme-coupled assay. For this 16 U/mL glucose-6-phosphate dehydrogenase, 0.2 U/mL diaphorase, 0.1 mM NADP^+ and 10 μM resazurin were added to the lysates. Resorufin fluorescence was determined as a measure of 2-DG uptake at ex/em 535/590 nm with a Victor Multilabel plate reader (Perkin Elmer). Blank values were subtracted from all readings and values were normalized to the DMSO control.

[2] = target: T2, GLUT3 (Homo sapiens, UniProt P11169); assay: GLUT3 transporter activity assay (2-DG uptake) in DLD-1-GLUT1-/- cells; details: DLD-1-GLUT1-/- cell line; read-out: GLUT3 inhibitory activity (IC50)
T2 construct: host or cells: DLD-1-GLUT1(-/-) cells
T2 sequence (P11169 1-496): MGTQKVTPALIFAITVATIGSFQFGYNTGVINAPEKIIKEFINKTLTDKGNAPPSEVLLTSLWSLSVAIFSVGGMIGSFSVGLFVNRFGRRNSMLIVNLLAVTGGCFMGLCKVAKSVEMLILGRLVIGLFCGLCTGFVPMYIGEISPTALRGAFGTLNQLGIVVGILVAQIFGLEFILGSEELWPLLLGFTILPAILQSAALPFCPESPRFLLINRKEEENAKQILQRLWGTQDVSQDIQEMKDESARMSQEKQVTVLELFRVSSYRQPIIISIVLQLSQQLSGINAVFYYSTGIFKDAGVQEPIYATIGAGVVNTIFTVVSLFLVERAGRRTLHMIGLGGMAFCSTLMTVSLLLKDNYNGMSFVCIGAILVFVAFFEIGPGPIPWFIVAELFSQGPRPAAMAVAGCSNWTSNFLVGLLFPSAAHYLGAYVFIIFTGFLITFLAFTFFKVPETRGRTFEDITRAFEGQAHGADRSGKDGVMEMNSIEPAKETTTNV
From the text: as §1, §2, §3, §4

[3] = target: T3, GLUT4 (Homo sapiens, UniProt P14672); assay: GLUT4 transporter activity assay (2-DG uptake) in CHO-hGLUT4 cells; details: CHO-hGLUT4 cell line; read-out: GLUT4 inhibitory activity (IC50)
T3 sequence (P14672 1-509): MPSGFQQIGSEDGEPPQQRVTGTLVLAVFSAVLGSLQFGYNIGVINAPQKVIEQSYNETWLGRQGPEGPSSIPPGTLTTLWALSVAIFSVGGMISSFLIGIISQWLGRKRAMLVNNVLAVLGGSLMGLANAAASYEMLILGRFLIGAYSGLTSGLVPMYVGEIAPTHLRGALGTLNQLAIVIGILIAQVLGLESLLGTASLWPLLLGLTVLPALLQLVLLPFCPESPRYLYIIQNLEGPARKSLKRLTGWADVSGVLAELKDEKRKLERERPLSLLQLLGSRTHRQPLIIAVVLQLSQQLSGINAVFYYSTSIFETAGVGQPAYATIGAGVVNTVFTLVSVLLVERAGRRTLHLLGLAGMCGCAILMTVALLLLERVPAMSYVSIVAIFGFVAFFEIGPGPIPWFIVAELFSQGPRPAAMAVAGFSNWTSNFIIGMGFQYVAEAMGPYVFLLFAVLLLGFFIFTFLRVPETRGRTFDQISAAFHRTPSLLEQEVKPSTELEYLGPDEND
Description: CHOK1-SLC2A4 cells were generated by transfection of CHOK1 cells with pCMV6-Entry-GLUT4 (Origene #SC125240) using Lipofectamin2000 according to the supplier's instructions. Briefly, 1.5E5 cells/well CHOK1 cells were seeded in 6-well cell culture plates. After overnight incubation, DNA-lipid complexes (2 μg plasmid DNA, DNA:lipid ratio 1:10) were prepared in OptiMEM and then added to the cells. After 5 days incubation, 800 μg G418 was added to the culture medium to generate a stable polyclone. For monoclone selection, single cells were re-plated in 96-well plates, expanded and selected by transgene overexpression and functional performance.
as §1, §2, §3, §4

Compound | IC50 [1] [µM] | IC50 [2] [µM] | IC50 [3] [µM]
Cc1ccc(CCNC(=O)c2cccc(N3C(=O)NC4CC3(C)Oc3c(OCC5CC5)cccc34)c2)cc1 (stereo not drawn) [Compound A08, 3-(10-(Cyclopropylmethoxy)-2-methyl-4-oxo-5,6-dihydro-2H-2,6-methanobenzo[g][1,3,5]oxadiazocin-3(4H)-yl)-N-(4-methylphenethyl)benzamide] | ≤ 0.3 | 0.3 to 1 | 1 to 4
Cc1ccc(CCNC(=O)c2cccc(N3C(=O)NC4CC3(C)Oc3c(OCc5ccncc5)cccc34)c2)cc1 (stereo not drawn) [Compound A09, 3-(2-Methyl-4-oxo-10-(pyridin-4-ylmethoxy)-5,6-dihydro-2H-2,6-methanobenzo[g][1,3,5]oxadiazocin-3(4H)-yl)-N-(4-methylphenethyl)benzamide] | ≤ 0.3 | 0.3 to 1 | 4 to 10
Cc1ccc(CCNC(=O)c2cccc(N3C(=O)NC4CC3(C)Oc3c(OCc5cccnc5N)cccc34)c2)cc1 (stereo not drawn) [Compound A12, 3-(10-((2-Aminopyridin-3-yl)methoxy)-2-methyl-4-oxo-5,6-dihydro-2H-2,6-methanobenzo[g][1,3,5]oxadiazocin-3(4H)-yl)-N-(4-methylphenethyl)benzamide] | 1 to 4 | 1 to 4 | > 25
Cc1ccc(CCNC(=O)c2cccc(N3C(=O)NC4CC3(C)Oc3c(OCc5cncnc5)cccc34)c2)cc1 (stereo not drawn) [Compound A13, 3-(2-Methyl-4-oxo-10-(pyrimidin-5-ylmethoxy)-5,6-dihydro-2H-2,6-methanobenzo[g][1,3,5]oxadiazocin-3(4H)-yl)-N-(4-methylphenethyl)benzamide] | 0.3 to 1 | 0.3 to 1 | > 25
Cc1ccc(CCNC(=O)c2cccc(N3C(=O)NC4CC3(C)Oc3c(OCc5cncc(C)c5)cccc34)c2)cc1 (stereo not drawn) [Compound A14, 3-(2-Methyl-10-((5-methylpyridin-3-yl)methoxy)-4-oxo-5,6-dihydro-2H-2,6-methanobenzo[g][1,3,5]oxadiazocin-3(4H)-yl)-N-(4-methylphenethyl)benzamide] | ≤ 0.3 | ≤ 0.3 | 1 to 4
CC12CC(NC(=O)N1c1cccc(C(=O)N3CCc4ccccc43)c1)c1cccc(OCc3ccccc3)c1O2 (stereo not drawn) [Compound A19, 10-(benzyloxy)-3-(3-(indoline-1-carbonyl)phenyl)-2-methyl-5,6-dihydro-2H-2,6-methanobenzo[g][1,3,5]oxadiazocin-4(3H)-one] | 10 to 25 | 1 to 4 | > 25
Cc1ccc(CCOC(=O)c2cccc(N3C(=O)NC4CC3(C)Oc3c(OCc5ccccc5)cccc34)c2)cc1 (stereo not drawn) [Compound A22, 4-methylphenethyl 3-(10-(benzyloxy)-2-methyl-4-oxo-5,6-dihydro-2H-2,6-methanobenzo[g][1,3,5]oxadiazocin-3(4H)-yl)benzoate] | 4 to 10 | 1 to 4 | > 25
CC12CC(NC(=O)N1c1cccc(C(=O)NC3Cc4ccccc4C3)c1)c1cccc(OCc3ccccc3)c1O2 (stereo not drawn) [Compound A24, 3-(10-(benzyloxy)-2-methyl-4-oxo-5,6-dihydro-2H-2,6-methanobenzo[g][1,3,5]oxadiazocin-3(4H)-yl)-N-(2,3-dihydro-1H-inden-2-yl)benzamide] | 10 to 25 | 4 to 10 | 10 to 25
CC12CC(NC(=O)N1c1cccc(C(=O)NC3CCc4ccccc4C3)c1)c1cccc(OCc3ccccc3)c1O2 (stereo not drawn) [Compound A26, 3-(10-(benzyloxy)-2-methyl-4-oxo-5,6-dihydro-2H-2,6-methanobenzo[g][1,3,5]oxadiazocin-3(4H)-yl)-N-(1,2,3,4-tetrahydronaphthalen-2-yl)benzamide] | > 25 | 4 to 10 | 10 to 25
CCNC(=O)c1cccc(N2C(=O)NC3CC2(C)Oc2c(OCc4ccccc4)cccc23)c1 (stereo not drawn) [Compound A38, 3-(10-(benzyloxy)-2-methyl-4-oxo-5,6-dihydro-2H-2,6-methanobenzo[g][1,3,5]oxadiazocin-3(4H)-yl)-N-(ethyl)benzamide] | 10 to 25 | 4 to 10 | 10 to 25
CC12CC(NC(=O)N1c1cccc(C(=O)NCc3ccccc3)c1)c1cccc(OCc3ccccc3)c1O2 (stereo not drawn) [Compound A39, 3-(10-(benzyloxy)-2-methyl-4-oxo-5,6-dihydro-2H-2,6-methanobenzo[g][1,3,5]oxadiazocin-3(4H)-yl)-N-(benzyl)benzamide] | 10 to 25 | 4 to 10 | 10 to 25

Source: patent US20210198269A1, “INHIBITORS OF GLUCOSE TRANSPORTERS (GLUTs)” (LEAD DISCOVERY CENTER GMBH, priority 2018, published 2021)
